Values joined by “and” are separate entries in the source; they are usually repeats but may differ in a detail not shown here. Identical values can stand only once. Where a SMILES comes first, the peptide text is derived from it. [ ]: non-standard residue; d: D form. pS = N[C@@H](COP(=O)(O)O)C(=O)O
Legend:
14-3-3 zeta = biological target: T1, 14-3-3 zeta (Homo sapiens, UniProt P63104); assay: SPR competitive inhibition of 14-3-3 zeta binding to chip-coupled phosphorylated Raf-259 peptide; conditions: 14-3-3 zeta 0.5-1.0 μM; competitor 1-50 μM; relative affinity only
T1 construct: made in house; host or cells: E. coli DH5α (vector pGEX-KT)
T1 sequence (P63104 1-245): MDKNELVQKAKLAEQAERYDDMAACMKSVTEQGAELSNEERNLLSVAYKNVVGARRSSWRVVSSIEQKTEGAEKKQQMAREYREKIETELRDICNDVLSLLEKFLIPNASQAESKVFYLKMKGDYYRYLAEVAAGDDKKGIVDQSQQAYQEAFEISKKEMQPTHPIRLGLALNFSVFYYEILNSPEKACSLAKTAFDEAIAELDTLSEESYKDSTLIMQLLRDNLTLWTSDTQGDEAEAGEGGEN
Procedure: (§1) The ability of each peptide to inhibit binding of 14-3-3 zeta to the phosphorylated peptide was then tested in a range of concentrations between 1 and 50 μM. 14-3-3 zeta was prepared according to the methods in Example 1 and binding affinities and specificities were determined using the peptides in Table 2. The 14-3-3 zeta fusion proteins (0.5-1.0 μM) were pre-incubated with a given peptide at concentrations between 1 μM and 50 μM. 14-3-3 zeta was then infused across a sensor chip surface which had been previously coupled with the phosphorylated Raf-259 peptide (SEQ ID NO: 4). IC50 values were determined by plotting the concentration of competitor peptide required to achieve a 50% reduction in equilibrium binding.

14-3-3 beta = biological target: T2, 14-3-3 beta (Homo sapiens, UniProt P31946); assay: SPR competitive inhibition of 14-3-3 beta binding to phosphorylated Raf-259 peptide; conditions: isoform beta
T2 construct: made in house; host or cells: E. coli DH5α (vector pGEX-KT)
T2 sequence (P31946 1-246): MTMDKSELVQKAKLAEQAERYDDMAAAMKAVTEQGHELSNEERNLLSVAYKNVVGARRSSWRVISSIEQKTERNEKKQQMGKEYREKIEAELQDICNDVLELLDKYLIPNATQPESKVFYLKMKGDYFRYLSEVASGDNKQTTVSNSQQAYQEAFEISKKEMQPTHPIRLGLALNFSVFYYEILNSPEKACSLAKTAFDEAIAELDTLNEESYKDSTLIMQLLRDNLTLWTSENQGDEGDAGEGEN
Procedure: as §1
(§2) There are seven known isoforms of 14-3-3 which form homo- and heterodimers in vivo. If different isoforms of 14-3-3 could bind to proteins with distinct specificities, heterodimeric forms of 14-3-3 might function as modular linker proteins, bringing together different proteins into a single complex. We were, therefore, interested in determining whether different 14-3-3 isoforms recognize phosphoserine in a sequence specific fashion. This hypothesis was tested by expressing and purifying three other 14-3-3 isoforms, eta, beta and tau, and measuring their affinity towards the panel of phosphorylated peptides generated above. Using the Surface Plasmon Resonance method, the "on" and "off" rates for 14-3-3 binding to the phosphorylated Raf-259 peptide were calculated (Table 6).
(§3) Competitive inhibition with the mutated phosphorylated Raf-1 peptides was used to determine whether their specificities were similar (Table 7). In each case, the calculated IC50 s were very similar to those calculated for 14-3-3 zeta.

14-3-3 eta = biological target: T3, 14-3-3 eta (Homo sapiens, UniProt Q04917); assay: SPR competitive inhibition of 14-3-3 eta binding to phosphorylated Raf-259 peptide; conditions: isoform eta
T3 construct: made in house; host or cells: E. coli DH5α (vector pGEX-KT)
T3 sequence (Q04917 1-246): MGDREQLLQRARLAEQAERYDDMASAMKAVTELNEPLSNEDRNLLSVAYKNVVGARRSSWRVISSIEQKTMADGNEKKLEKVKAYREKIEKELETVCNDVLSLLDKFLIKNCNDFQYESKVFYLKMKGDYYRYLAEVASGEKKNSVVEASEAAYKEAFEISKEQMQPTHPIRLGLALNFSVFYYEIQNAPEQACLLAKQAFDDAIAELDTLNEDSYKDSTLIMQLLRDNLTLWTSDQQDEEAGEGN
Procedure: as §1, §2, §3

14-3-3 tau = biological target: T4, 14-3-3 tau (Homo sapiens, UniProt P27348); assay: SPR competitive inhibition of 14-3-3 tau binding to phosphorylated Raf-259 peptide; conditions: isoform tau
T4 construct: made in house; host or cells: E. coli DH5α (vector pGEX-KT)
T4 sequence (P27348 1-245): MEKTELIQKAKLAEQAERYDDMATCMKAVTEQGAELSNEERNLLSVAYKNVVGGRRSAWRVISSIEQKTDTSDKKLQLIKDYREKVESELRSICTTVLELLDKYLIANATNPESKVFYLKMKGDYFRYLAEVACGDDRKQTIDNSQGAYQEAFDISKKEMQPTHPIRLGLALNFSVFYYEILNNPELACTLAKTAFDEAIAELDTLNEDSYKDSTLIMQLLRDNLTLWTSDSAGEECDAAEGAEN
Procedure: as §1, §2, §3

14-3-3 protein = biological target: T5, 14-3-3 protein (Homo sapiens, UniProt P63104); assay: Degenerate peptide pools tested as competitive inhibitors of 14-3-3 binding; conditions: competitor peptide 10 μM; no peptide = 100%
T5 sequence (P63104 1-245): T1 sequence (P63104 1-245)
Procedure: A series of degenerate peptides based upon phosphoserine Raf-621 peptide (SEQ ID NO: 10) were synthesized to confirm that the arginine in the -3 position, the serine in the -2 position and the proline in the +2 position were the critical motif residues (Table 5). Six pools of peptides were synthesized with all twenty amino acids placed in positions -5, -3, -2, -1, +1 and +2 respectively. Each pool of twenty peptides was tested as competitive inhibitors for binding. We reasoned that if a particular position is not critical for binding, the pool of twenty peptides should compete as well as wild-type peptide for binding. On the other hand, if a particular amino acid is required at a particular position, only a small fraction of the pool will be able to compete for binding, thus increasing (up to 20 fold) the concentration of peptide needed to inhibit binding.

CC[C@H](C)[C@H](NC(=O)[C@H](CCCCN)NC(=O)[C@@H]1CCCN1C(=O)[C@@H](N)CC(C)C)C(=O)N[C@@H](CC(N)=O)C(=O)N[C@@H](CCCNC(=N)N)C(=O)N[C@@H](CO)C(=O)N[C@@H](C)C(=O)N[C@@H](COP(=O)(O)O)C(=O)N[C@@H](CCC(=O)O)C(=O)N1CCC[C@H]1C(=O)N[C@@H](CO)C(=O)N[C@@H](CC(C)C)C(=O)N[C@@H](Cc1c[nH]cn1)C(=O)N[C@@H](CCCNC(=N)N)C(=O)O [pS-Raf-621, Leu-Pro-Lys-Ile-Asn-Arg-Ser-Ala-Xaa-Glu-Pro-Ser-Leu-His-Arg] (H-LPKINRSA[pS]EPSLHR-OH)
IC50 (14-3-3 zeta): ~1000 nM and 1000 nM
IC50 (14-3-3 beta): 2000 nM
IC50 (14-3-3 eta): 3 µM
IC50 (14-3-3 tau): 2000 nM
% BINDING @ 10 μM (14-3-3 protein): < 5%

Reference: US6207393A, “Inhibition of intracellular signal transduction by 14-3-3-binding peptides” (Washington University, priority 1999, dated 2001)
